Measurements: patent US11567074B2, “Methods for identifying proteins that bind ligands” (University of Pittsburgh—Of the Commonwealth System of …, priority 2016, dated 2023)
“And” between values parts separate entries of the source, which are not always exact repeats. Identical values can stand only once. “Also recorded” adds a separate entry of the source.

Assays:
DRP1 = biological target: T1, DRP1 (Homo sapiens, UniProt O00429); experiment: Western blot thermal shift (CETSA) in a2780cis lysate, DRP1; assay type: binding; conditions: 20 μM mdivi-1, a2780cis cytoplasmic lysate, 44-60° C., vs vehicle
T1 construct: Lysates of A2780cis cells were prepared identically as DISRUPT experiments outlined above; endogenous in cells; host or cells: a2780cis cells, cleared lysate
Experimental: (§1) Protein quantification by western blot was employed to confirm the relative abundance of DPP3 remaining in solution following treatment with mdivi-1, heating and centrifugation. Cytoplasmic lysates from a2780cis ovarian cancer cells were treated with 20 μM mdivi-1 of and heated to 44° C., 48° C., 52° C., 56° C., and 60° C., in singlicate; the western blot is shown in FIG. 9D. β-actin was used as a control blot to show an unchanging […] intensity as a function of temperature. […] DPP3 activity was measured using a polypeptide cleavage assay that measures a decrease in fluorescence due to the removal of an n-terminal bound fluorophore. Fluorescence was measured as a function of dose, as shown in FIG. 9E; the control and quench assays for the functional assay are shown in FIG. 9D.
(§2) The lysate stock was placed on ice until thawed.
(§3) Lysates of A2780cis cells were prepared identically as DISRUPT experiments outlined above. The soluble protein was separated on Tris-glycine gels (Invitrogen). The separated proteins were blotted onto a polyvinylidene difluoride (PVDF) membrane and non-specific binding was blocked overnight at 4° C. in phosphate-buffered saline containing 0.1% Tween 20 and 10% nonfat dry milk (blocking buffer). Membranes were incubated with primary antibodies, DPP3 (GeneTex), Drpl (BD Biosciences), and β-actin (Sigma-Aldrich), in blocking buffer overnight at 4° C. […]

DPP3 [1] = biological target: T2, DPP3 (Homo sapiens, UniProt Q9NY33); experiment: DPP3 activity assay (fluorogenic polypeptide cleavage); assay type: biochemical; parameters: purchased BPS Bioscience 80203; conditions: IC50 upon DPP3 activity, purified recombinant DPP3, substrate Arg2-AMC, fluorescence as a function of dose
T2 sequence (Q9NY33 1-737): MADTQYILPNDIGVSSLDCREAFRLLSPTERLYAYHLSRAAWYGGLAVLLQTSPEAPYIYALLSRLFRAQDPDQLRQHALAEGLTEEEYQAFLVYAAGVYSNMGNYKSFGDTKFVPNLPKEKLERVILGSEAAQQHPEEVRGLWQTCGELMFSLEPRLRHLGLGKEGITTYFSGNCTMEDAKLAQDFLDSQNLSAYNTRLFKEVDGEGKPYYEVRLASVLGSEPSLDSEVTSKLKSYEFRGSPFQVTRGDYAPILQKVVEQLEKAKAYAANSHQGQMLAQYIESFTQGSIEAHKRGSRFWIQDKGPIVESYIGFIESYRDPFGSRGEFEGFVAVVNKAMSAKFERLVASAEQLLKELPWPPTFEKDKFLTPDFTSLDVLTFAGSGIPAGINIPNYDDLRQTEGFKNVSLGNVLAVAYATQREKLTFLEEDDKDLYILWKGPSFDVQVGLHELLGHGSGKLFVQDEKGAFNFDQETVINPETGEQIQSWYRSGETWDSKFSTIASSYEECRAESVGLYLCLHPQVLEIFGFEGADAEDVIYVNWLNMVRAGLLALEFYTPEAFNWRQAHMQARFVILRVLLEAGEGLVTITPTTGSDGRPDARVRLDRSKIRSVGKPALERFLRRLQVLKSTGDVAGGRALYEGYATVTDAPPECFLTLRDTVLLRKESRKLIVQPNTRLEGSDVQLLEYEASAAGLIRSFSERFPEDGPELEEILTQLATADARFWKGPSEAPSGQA
Experimental: as §1
The inhibition of DPP3 peptidase activity by mdivi-1 was evaluated using a commercially available fluorogenic DPP3 Assay Kit (catalog number 80203, BPS Bioscience, San Diego Calif.) that contains purified recombinant DPP3 protein and DPP3 substrate Arg2-AMC. The fluorescence intensity was measured using a microplate reader, Synergy 2 (BioTek instruments).

DPP3 [2] = biological target: T2, DPP3; experiment: Western blot thermal shift (CETSA) in a2780cis lysate, DPP3; assay type: binding; parameters: endogenous in cells; host or cells: a2780cis cells (Sigma Aldrich), cleared freeze-thaw lysate; conditions: 20 μM mdivi-1, a2780cis cytoplasmic lysate, 44-60° C., vs vehicle
Experimental: as §1, §2, §3

[3] = biological target: T3, dipeptidyl peptidase 3 (DPP3) (Homo sapiens, UniProt Q9NY33); experiment: DISRUPT label-free differential mass spectrometry, a2780cis lysate; assay type: binding; conditions: 20 μM mdivi-1, a2780cis lysate, 56° C. for ten minutes, n=6 per condition
T3 construct: endogenous in cells; host or cells: a2780cis cells (Sigma Aldrich), cleared freeze-thaw lysate
T3 sequence (Q9NY33 1-737): T2 sequence (Q9NY33 1-737)
Experimental: Equal aliquots of a2780cis cells were treated with 20 μM mdivi-1 and DMSO respectively, split into six technical replicates per condition, and heated to 56° C. for ten minutes to stimulate differential agglutination of drug-bound and unbound proteins. […] Data-dependent MS/MS data was analyzed and results in the identification of 35,369 features linked to 5488 unique peptides sequences that were associated with 947 proteins. Features […] having non-zero intensity values in at least four of six samples per condition were selected, and a Student's t-test was applied to compute a p value for each feature, and a volcano plot was created to show the distribution of features as a function of fold change and significance, as shown in the volcano plot in FIG. 7A. Two of the significant features were identified as peptide […] (SEQ ID NO: 2) deriving from dipeptidyl peptidase 3, DPP3, using MS/MS spectra acquired during the initial dMS experiment. The 6 remaining highly significant features were identified as peptides […] (SEQ ID NO: 6), […] (SEQ ID NO: 4), and […] (SEQ ID NO: 1) that are specific to the protein sequence for DPP3, using MS/MS spectra acquired in subsequent analyses.
as §2
Samples were denatured and digested utilizing the FASP method described by Wisniewski et al. (2009) and Manza et al. (2005). […]

[4] = tested on: tumor cells including cisplatin resistant ovarian cancers cells; conditions: wide range of tumor cells incl. cisplatin resistant ovarian cancer cells; cited from earlier work
β-actin = biological target: T4, β-actin (Homo sapiens, UniProt P60709); experiment: Western blot thermal shift (CETSA) in a2780cis lysate, β-actin control; assay type: binding; conditions: 20 μM mdivi-1, a2780cis cytoplasmic lysate, control protein
T4 construct: Lysates of A2780cis cells were prepared identically as DISRUPT experiments outlined above; endogenous in cells; host or cells: a2780cis cells, cleared lysate
Experimental: as §1, §2, §3

[5] = biological target: T5, Huntingtin-interacting protein K, HYPK (Homo sapiens, UniProt Q9NX55); experiment: DISRUPT label-free differential mass spectrometry, K562 lysate, HYPK; assay type: binding; conditions: 2 μM staurosporine, 56° C. for ten minutes, n=10 per condition
T5 construct: endogenous in cells; host or cells: K562 cells (ATCC), cleared lysate in kinase buffer
T5 sequence (Q9NX55 1-121): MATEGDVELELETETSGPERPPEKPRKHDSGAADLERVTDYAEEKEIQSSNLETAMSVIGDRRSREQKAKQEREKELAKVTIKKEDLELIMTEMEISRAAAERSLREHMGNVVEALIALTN
Experimental: Samples were heated to 56° C. for ten minutes to stimulate protein agglutination (protein clumping) and agglutinated proteins were removed from solution by centrifugation at 20,000 g.
To measure the relative abundance of proteins in solution, lysates were subjected to tryptic digestion, desalting and quantitative proteomic analysis. Peptide samples were separated by reversed phase C18 nanoflow liquid chromatography (nLC), ionized by electrospray ionization, and analyzed with a hybrid ion trap/high-resolution Fourier transform mass spectrometer. […] To enhance the quantification of the vast number of molecular features present in high-resolution data, the acquisition of full-scan MS spectra were prioritized over the collection of MS/MS spectra that are used for peptide identification, resulting in approximately 10 quantitative measurements per chromatographic peak.
Samples were analyzed in a balanced run order to compensate for drifts in mass spectrometry response that occurs as a function of time. Each sample was analyzed once and the resulting data file was uploaded to a cloud-based data analysis platform, CHORUS (www.chorusproject.org), that was developed to support the efficient analysis of high-resolution mass spectrometry data. Label-free differential mass spectrometry (dMS) was used to quantify hundreds of thousands of features detected by nLC-MS analysis. […]

T1 sequence (O00429 whole entry): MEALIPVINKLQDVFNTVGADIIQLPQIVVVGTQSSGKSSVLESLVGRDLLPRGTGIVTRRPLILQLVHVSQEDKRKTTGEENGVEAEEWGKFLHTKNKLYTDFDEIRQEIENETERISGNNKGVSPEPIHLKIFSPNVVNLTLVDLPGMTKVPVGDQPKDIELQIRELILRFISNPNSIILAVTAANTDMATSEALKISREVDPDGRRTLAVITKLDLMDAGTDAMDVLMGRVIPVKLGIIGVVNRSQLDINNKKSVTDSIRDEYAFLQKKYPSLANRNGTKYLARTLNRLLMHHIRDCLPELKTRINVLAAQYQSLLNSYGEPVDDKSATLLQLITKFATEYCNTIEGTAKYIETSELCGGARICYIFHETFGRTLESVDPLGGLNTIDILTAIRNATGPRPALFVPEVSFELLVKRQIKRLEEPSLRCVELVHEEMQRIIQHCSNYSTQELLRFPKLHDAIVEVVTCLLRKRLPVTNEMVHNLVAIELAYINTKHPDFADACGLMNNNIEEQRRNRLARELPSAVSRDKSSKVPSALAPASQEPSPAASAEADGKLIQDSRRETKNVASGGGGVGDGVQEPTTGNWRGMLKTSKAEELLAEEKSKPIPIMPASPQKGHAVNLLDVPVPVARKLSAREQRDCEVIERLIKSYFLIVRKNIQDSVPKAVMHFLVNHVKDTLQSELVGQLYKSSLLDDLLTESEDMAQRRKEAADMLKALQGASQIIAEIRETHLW

| SMILES | thermal shift of DRP1 (western blot) (DRP1) | IC50 (DPP3 [1]) | thermal shift of DPP3 (protein remaining in solution, western blot) (DPP3 [2]) | DISRUPT ranking / significant features of DPP3 [3] | killing of tumor cells [4] | thermal shift of β-actin (western blot) (β-actin) | peptides identified among the 15 highly significant features (p<0.0001), HYPK [5] |
| --- | --- | --- | --- | --- | --- | --- | --- |
| COc1cc(-n2c(S)nc3ccccc3c2=O)c(Cl)cc1Cl [mdivi-1] | no evidence of a thermal shift; also recorded: no shifts were observed | ~70 nM and 70 nM | remained in solution at 52 °C and 56 °C at higher levels compared to vehicle treated controls; also recorded: a strong shift was seen for DPP3 | eight DPP3 peptides from 18 features were significant; also recorded: top putative target | robust killing | no shifts were observed |  |
| CN[C@@H]1C[C@H]2O[C@@](C)([C@@H]1OC)n1c3ccccc3c3c4c(c5c6ccccc6n2c5c31)C(=O)NC4 [staurosporine] |  |  |  |  |  |  | one peptide |
